Assay results taken from patent US7429564B2, “Oral insulin therapy” (Emisphere Technologies, Inc., priority 2002, dated 2008).
Where “and” joins values, the source holds several entries; their conditions need not be identical. Equal values may be shown once. Marks after values point to notes of the source that are not given here.

Tests used:
[1] = system: plasma glucose; assay: Example 5: plasma glucose pharmacodynamics; assay type: in vivo, human
Description: (§1) For insulin/4-CNAB treatment Groups 2 and 3, subjects' blood samples (1 drop per sample) were drawn at 15 minutes before dosing, and at 5, 10, 15, 20, 25, 30, 35, 40, and 50 minutes and at 1, 1.25, 1.5, 1.75, 2, 2.5, 3, 4, 6, 8 and 12 hours post-dose (21 samples per treatment for Insulin/4-CNAB dosing groups) for plasma glucose, insulin and C-peptide measurements. For the 4-CNAB alone treatment Group 1, blood samples were collected before dosing (−15 minutes), and at 30 minutes and at 2 hr post-dose for blood glucose measurements. For the insulin alone control group (minimum 3 subjects), blood samples (3 mL in sodium heparin tube) were drawn at 15 minutes before dosing, and at 10, 20, 30, 40, 50 minutes and 1, 1.25, 2, 2.5, 3 and 6 hr post-dose (12 samples per treatment). The blood samples for glucose were assayed in real time using a Glucometer®. These measurements were used for detection of onset of hypoglycemia, so rescue action could be taken where necessary. Plasma glucose, insulin and C-peptide measurements were done according to standard procedures.
Plasma glucose was measured based on a timed-endpoint method using a BECKMAN Synchron CX system that mixes exact proportions of reagents that catalyse the phosphorylation of glucose. The Synchron CX measures changes in the absorbance spectrum at 340 nm at a fixed time interval. The change in absorbance is directly proportional to the concentration of glucose in the sample.
On the basis of plasma concentrations of glucose, PD analysis was performed using WinNonlin™ Professional version 3.2. The profiles for glucose, glucose change from baseline and glucose percentage change from baseline were evaluated up to 6 hours as food was given 6 hours following insulin treatment. The following PD parameters were computed for plasma glucose concentration: AURC(0-2), AURC(0-t) (total response), Rmax (minimum value), tRmax and concentrations (R^b) and corresponding time (t^b) immediately prior to intervention for hypoglycemia. The following PD parameters were computed for plasma glucose concentration change from baseline: AUEC(0-2), AUEC(0-t) (baseline subtracted), Emax (baseline subtracted), tEmax (obtained without interpolation), percent change from baseline and concentrations (E^c) and corresponding time (t^c) immediately prior to intervention for hypoglycemia.
Similarly, in order to take into account baseline levels of glucose, PD analysis was conducted based on the percent change (decrease or increase) in glucose concentration from the baseline, where baseline was taken as the pre-dose concentration levels, rather than absolute values only. The glucose concentration percent change from baseline values were also calculated, and profiles were tabulated and plotted. Thus, […]

[2] = system: aorta mRNA expression; assay: GeneChip analysis of aorta mRNA expression after oral and SC dosing of insulin; assay type: in vivo, Sprague-Dawley rats; settings: for Changes in aorta mRNA levels (control groups): component given orally alone
Description: A total of 60 male Sprague-Dawley rats were fasted for 24 hours and then anesthetized with Thorazine (1.5 mg/kg, im) and Ketamine (44 mg/kg, im). They were then divided into the following 5 treatment groups: • 1. H2O (p.o. 1 mL/kg) • 2. Carrier (p.o., 1 mL/kg; 200 mg/kg) • 3. Insulin (p.o., 1 ml/kg; 0.5 mg/kg) • 4. Insulin and Carrier (p.o., 1 ml/kg; 0.5 mg/kg Insulin and 200 mg/kg 1182) • 5. Insulin (s.c., 0.05 mg/kg) • There were twelve animals per group, with three being sacrificed at 30, 60, 120 and 180 minutes. For serum insulin and blood glucose monitoring, 0.4 mL of blood was drawn from the tail artery. Following euthanasia, an aorta sample was removed and snap-frozen in liquid nitrogen. All animal studies where conducted in accordance with the IACUC approved protocols.
Total RNA was prepared from the frozen tissue sample following the protocol for use of Trizol Reagent (Invitrogen, Inc., Carlsbad, Calif.). The samples were then further cleaned up by use of the Qiagen Midi Kit (Valencia, Calif.). Quality of each RNA sample was assessed using agarose gel electrophoresis and UV absorbance at 260 and 280. Acceptable RNA samples were pooled in equal quantities on a mass basis. This pooled sample was used to prepare cDNA following the protocol provided by Affymetrix. This sample was then used as template in an ii: vitro transcription labeling and amplification reaction using the Enzo BioArray High Yield RNA Transcript Labeling Kit (Affymetrix Inc., Santa Clara, Calif.). 15 μg of labeled transcript was then fragmented and used to prepare a hybridization solution as described in the Affymetrix GeneChip Protocol, Affymetrix, Inc., 2000.
The samples were hybridized to a Test Array and 5′ to 3′ ratios, detection limit, and image quality were assessed to ensure the quality of the labeled sample. Acceptable samples were then hybridized to an Affymetrix Rat U34A array. Washing and staining of these arrays was performed using the standard Affymetrix protocols. Array quality was assessed in the same manner as the Test array. Acceptable samples were analyzed both in the expression patterns seen across the group as well as pair wise in the following manner:
Fold change were determined by the Affymetrix Microarray Suite Software package and values below 2 fold were considered insignificant. This software package analysis compares the individual members of each probe set to determine a Difference Call. In this report all calculated fold changes are used in the figures, however in the results and discussion only those fold changes that received an Increasing or Decreasing call by the Affymetrix software were used to draw conclusions.

[3] = Example 5: C-peptide corrected insulin pharmacokinetics; design: species or system human; settings: in vivo; for C-peptide corrected insulin AUC(0-2) / C-peptide corrected insulin AUC(0-6) / C-peptide corrected insulin tmax, median: human
Description: On the basis of plasma concentrations of 4-CNAB and insulin, PK analysis was performed using non-compartmental PK methods as implemented in WinNonlin™ Professional version 3.2. The profiles for insulin and C-peptide corrected insulin were evaluated up to 6 hours as food was given 6 hours following insulin treatment. The following parameters were derived for 4-CNAB: Cmax, tmax, AUC(0-t), AUC(0-inf), AUC% Extrap, Kel, t1/2, CL/F, Vd/F, MRT(0-t), MRT(0-inf) and Frel. The following parameters were derived for insulin and C-peptide corrected insulin: Cmax, tmax, AUC(0-2), AUC(0-6), AUC(0-t) and concentrations (C^b) and corresponding time (t^b) immediately prior to intervention for hypoglycemia.
For the PK analysis of insulin, analysis was conducted for both measured insulin and C-peptide corrected insulin concentrations. This was done using concentrations of the precursor C-peptide and the following equation: Corrected Insulin Concentration=Insulin Concentration−(Baseline Ratio×C-peptide) where

[4] = system: plasma C-peptide; assay: Example 5: plasma C-peptide; assay type: in vivo, human
Description: as §1, with “Plasma glucose, insulin and C-peptide measurements were done according to standard procedures.” left out
Plasma C-peptide was measured using a DELFIA C-peptide kit, based on a solid phase, two-site fluoroimmunometric assay, which used the direct sandwich technique in which two monoclonal antibodies are directed against antigenic determinants on the C-peptide molecule. […] The fluorescence is directly proportional to the concentration of C-peptide in the sample.

[5] = 150 Units oral insulin alone, all subjects
[6] = 150 Units oral insulin alone, non-hypoglycemic subjects
[7] = 10 Units SC, carrier 0, unaudited data
[8] = 10 Units SC, hypoglycemic subjects

Compound: O=C(O)CCCNC(=O)c1ccc(Cl)cc1O [4-CNAB, 4-[(4-chloro, 2-hydroxybenzoyl)amino]butanoic acid]
- Effect on plasma glucose levels ([1]; 4-CNAB alone, oral): no significant effect on plasma glucose levels
- Changes in aorta mRNA levels (control groups) [2]: no consistent and significant changes in mRNA levels in the aorta

Compound: oral insulin alone: recombinant human zinc insulin given orally without delivery agent
- C-peptide corrected insulin AUC(0-2) ([3]; po): 10.8 ± 16.6 pmol·h/L
- C-peptide corrected insulin AUC(0-6) ([3]; po): 21.5 ± 42.0 pmol·h/L
- C-peptide corrected insulin tmax, median ([3]; po): 2.00 h
- Change in C-peptide concentrations from baseline ([4]; 150 Units oral insulin alone): little change in C-peptide concentrations from baseline
- Change in glucose concentrations ([1]; 150 Units oral insulin alone): only a slight change in glucose concentrations
- Glucose change AUEC(0-2) [1, 5]: -0.63 ± 0.77 mmol·h/L
- Glucose change from baseline Emax [1, 5]: -0.79 ± 0.43 mmol/L
- Glucose change tEmax, median [1, 5]: 6.00 h
- Maximum % change of glucose from baseline up to 6 h [1, 5]: −12.41 ± 6.48%
- Plasma glucose AURC(0-2) [1, 5]: 11.06 ± 0.69 mmol·h/L
- Plasma glucose AURC(0-6) [1, 5]: 32.15 ± 1.41 mmol·h/L
- Plasma glucose Rmax (minimum concentration) [1, 5]: 5.08 ± 0.20 mmol/L
- Plasma glucose tRmax, median [1, 5]: 6.00 h
- Glucose change AUEC(0-6) ([1]; 150 Units oral insulin alone, all subjects, AUEC(0-t) for 6 h sampling schedule): −3.01 ± 2.44^d mmol · h/L
- Glucose change AUEC(0-2) [1, 6]: -0.63 ± 0.77 mmol·h/L
- Glucose change from baseline Emax [1, 6]: -0.79 ± 0.43 mmol/L
- Glucose change tEmax, median [1, 6]: 6.00 h
- Maximum % change of glucose from baseline up to 6 h [1, 6]: −12.41 ± 6.48%
- Plasma glucose AURC(0-2) [1, 6]: 11.06 ± 0.69 mmol·h/L
- Plasma glucose Rmax (minimum concentration) [1, 6]: 5.08 ± 0.20 mmol/L
- Plasma glucose tRmax, median [1, 6]: 6.00 h
- Glucose change AUEC(0-6) ([1]; 150 Units oral insulin alone, non-hypoglycemic subjects, AUEC(0-t) for 6 h sampling schedule): −3.01 ± 2.44^d mmol · h/L
- Plasma glucose AURC(0-6) ([1]; 150 Units oral insulin alone, non-hypoglycemic subjects, AURC(0-t) for 6 h sampling schedule): 32.15 ± 1.41^c mmol · h/L
- Changes in aorta mRNA levels (control groups) [2]: no consistent and significant changes in mRNA levels in the aorta

Compound: SC insulin: human regular insulin injected subcutaneously (Humulin R or equivalent; Calbiochem insulin in the rat studies)
- C-peptide corrected insulin AUC(0-2) ([3]; sc): 355.2 ± 170.2 pmol·h/L
- C-peptide corrected insulin AUC(0-6) ([3]; sc): 942.8 ± 333.0 pmol·h/L
- C-peptide corrected insulin tmax, median ([3]; sc): 1.88 h
- C-peptide corrected insulin C^b ([3]; sc): 159.5 ± 75.6 pmol/L
- C-peptide corrected insulin t^b, median ([3]; sc): 1.00 h
- % Max C-peptide Reduction [4, 7]: 54.3 ± 9.8%
- % Max Glucose Reduction [1, 7]: 32.3 ± 9.6%
- Glucose change AUEC(0-2) ([1]; 10 Units SC, all subjects): -0.71 ± 1.32 mmol·h/L
- Glucose change AUEC(0-6) ([1]; 10 Units SC, all subjects): -1.40 ± 4.41 mmol·h/L
- Glucose change from baseline Emax ([1]; 10 Units SC, all subjects): -2.28 ± 0.5 mmol/L and -2.28 ± 0.40 mmol/L
- Glucose change tEmax, median ([1]; 10 Units SC, all subjects): 1.00 h
- Maximum % change of glucose from baseline up to 6 h ([1]; 10 Units SC, all subjects): −39.82±8.26%
- Plasma glucose AURC(0-2) ([1]; 10 Units SC, all subjects): 10.40 ± 1.36 mmol·h/L
- Plasma glucose AURC(0-6) ([1]; 10 Units SC, all subjects): 32.02 ± 4.66 mmol·h/L
- Plasma glucose Rmax (minimum concentration) ([1]; 10 Units SC, all subjects): 3.31 ± 0.42 mmol/L
- Plasma glucose tRmax, median ([1]; 10 Units SC, all subjects): 1.00 h
- Glucose change AUEC(0-6) [1, 8]: 1.00 mmol·h/L
- Glucose change E^c (immediately prior to recovery from hypoglycemia) [1, 8]: -0.71 ± 1.32 mmol/L
- Glucose change from baseline Emax [1, 8]: -2.28 ± 0.40 mmol/L
- Glucose change tEmax, median [1, 8]: 1.00 h
- Maximum % change of glucose from baseline up to 6 h [1, 8]: −39.82 ± 8.26%
- Plasma glucose AURC(0-2) [1, 8]: 10.40 ± 1.36 mmol·h/L
- Plasma glucose AURC(0-6) [1, 8]: 32.02 ± 4.66 mmol·h/L
- Plasma glucose R^b (immediately prior to recovery from hypoglycemia) [1, 8]: 3.45 ± 0.41 mmol/L
- Plasma glucose Rmax (minimum concentration) [1, 8]: 3.31 ± 0.42 mmol/L
- Plasma glucose tRmax, median [1, 8]: 1.00 h
- Plasma glucose t^b, median [1, 8]: 1.00 h
- ICAM-1 mRNA ([2]; 180 minutes): increased
- c-myc mRNA ([2]; 180 minutes): significant increase
- IL-6 mRNA ([2]; vs sham): significant increase
